In general, pIC50 refers to the IC50 on a negative log10 scale, so that one unit is a factor of ten. Low readings indicate a high IC50, high ones a low IC50.

pIC50: −log10 of the molar value.

This experiment deals with T1, ATP-sensitive inward rectifier potassium channel 1 (Homo sapiens, UniProt P48048).
T1 sequence (P48048 whole entry): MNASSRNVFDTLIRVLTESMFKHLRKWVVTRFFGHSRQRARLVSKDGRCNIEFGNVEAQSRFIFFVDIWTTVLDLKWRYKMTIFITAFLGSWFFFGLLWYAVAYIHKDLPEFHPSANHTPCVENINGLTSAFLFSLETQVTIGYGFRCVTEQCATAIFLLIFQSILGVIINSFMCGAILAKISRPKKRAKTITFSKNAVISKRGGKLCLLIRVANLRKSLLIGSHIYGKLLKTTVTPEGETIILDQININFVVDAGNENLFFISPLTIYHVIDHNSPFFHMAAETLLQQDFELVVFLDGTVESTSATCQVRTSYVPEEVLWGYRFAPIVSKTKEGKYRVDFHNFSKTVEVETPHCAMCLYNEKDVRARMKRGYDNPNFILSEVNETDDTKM
Description: Thallium Flux Assay: A Thallium Flux Assay was performed on each of the final product compounds of the Examples. This assay has been described previously; see, e.g., PCT Published Application WO 2013/062900.
In turn, `C[C@@H]1C[C@]2(CC[C@@H](N(C)Cc3ccc(-n4cnnn4)nn3)CC2)C(=O)N1C1=CC(=O)OC1` gave a pIC50 of 6.57.

On to `CC1=C(N2CCC3(CCC(NCc4ccc5c(c4C)Cn4nnnc4-5)CC3)C2=O)COC1=O` (stereo not given), for which the pIC50 was 7.72.

`CC1=C(N2CC[C@]3(CC[C@@H](NCc4cc(C)c(-n5cnnn5)nn4)CC3)C2=O)COC1=O`: the pIC50 was 8.08.

Turning to `CC1=C(N2CC[C@]3(CC[C@@H](N[C@@H](C)c4ccc(-n5cnnn5)nn4)CC3)C2=O)COC1=O`, the pIC50 was 6.49.

`CC1=C(N2C(=O)[C@]3(CC[C@@H](N(C)Cc4cnc(-n5cnnn5)cn4)CC3)C[C@@H]2C)COC1=O` showed a pIC50 of 6.51.

Turning to `CC1=C(N2C(=O)[C@]3(CC[C@H](NCc4ccc(-n5cnnn5)nn4)CC3)C[C@H]2C)COC1=O`, the pIC50 was 7.64.

As to `C[C@@H]1C[C@]2(CC[C@@H](NCc3ccc(-n4cnnn4)nn3)CC2)C(=O)N1C1=CC(=O)OC1`, the pIC50 was 6.96.

Regarding `CC1=C(N2CC[C@]3(CC[C@@H](NC(C)c4cnc(-n5cnnn5)cn4)CC3)C2=O)COC1=O` (stereo not given in full), the pIC50 was 6.77.

In the case of `CC1=C(N2CC[C@]3(CC[C@@H](N(CCO)Cc4ccc(-n5cnnn5)nn4)CC3)C2=O)COC1=O`, the pIC50 was 6.82.

The molecule `CC1=C(N2CC[C@]3(CC[C@@H](N(C)Cc4cnc(-n5cnnn5)s4)CC3)C2=O)COC1=O` showed a pIC50 of 7.52.

Molecule `CC1=C(N2C(=O)[C@]3(CC[C@H](NCc4ccc(-n5cnnn5)nn4)CC3)C[C@@H]2C)COC1=O` had a pIC50 of 7.40.

The molecule `CC1=C(N2C(=O)[C@]3(CC[C@H](N(C)Cc4ccc(-n5cnnn5)nn4)CC3)C[C@@H]2C)COC1=O` gave a negative logarithm of the IC50 (pIC50) of 6.70.

In turn, `CC1C[C@]2(CC[C@@H](NCc3ccc(-n4cnnn4)nn3)CC2)C(=O)N1C1=CC(=O)OC1` (stereo not given in full) had a pIC50 of 7.55.

`CC1=C(N2C(=O)[C@]3(CC[C@@H](NCc4cnc(-n5cnnn5)cn4)CC3)C[C@@H]2C)COC1=O` gave a negative-log IC50 (pIC50) of 6.38.

`C[C@H]1C[C@]2(CC[C@@H](NCc3ccc(-n4cnnn4)nn3)CC2)C(=O)N1C1=CC(=O)OC1` gave a negative logarithm of the IC50 (pIC50) of 7.52.

For `CC1=C(N2C(=O)[C@]3(CC[C@H](N(C)Cc4ccc(-n5cnnn5)nn4)CC3)C[C@H]2C)COC1=O`, the pIC50 was 6.70.

In turn, `CC1=C(N2C(=O)[C@]3(CC[C@H](N(C)Cc4cnc(-n5cnnn5)cn4)CC3)C[C@H]2C)COC1=O` gave a pIC50 of 6.70.

For the molecule `CC1=C(N2C(=O)[C@]3(CC[C@H](NCc4cnc(-n5cnnn5)cn4)CC3)C[C@H]2C)COC1=O`, the negative logarithm of the IC50 (pIC50) was 7.19.

Turning to `C[C@H]1C[C@]2(CC[C@H](NCc3ccc(-n4cnnn4)nn3)CC2)C(=O)N1C1=CC(=O)OC1`, the pIC50 is 8.08.

Molecule `CC1=C(N2CC[C@]3(CC[C@@H](NCc4cnc(-n5cnnn5)s4)CC3)C2=O)COC1=O` had a pIC50 of 7.04.

`C[C@@H]1C[C@]2(CC[C@@H](NCc3cnc(-n4cnnn4)s3)CC2)C(=O)N1C1=CC(=O)OC1` gave a pIC50 of 6.72.

Molecule `C[C@H]1C[C@]2(CC[C@@H](NCc3cnc(-n4cnnn4)s3)CC2)C(=O)N1C1=CC(=O)OC1` had a pIC50 of 7.62.

`CC1=C(N2CC[C@]3(CC[C@@H](N(Cc4ccc(-n5cnnn5)nn4)Cc4ncco4)CC3)C2=O)COC1=O` had a pIC50 of 6.68.

`CC1C[C@]2(CC[C@@H](NCc3cnc(-n4cnnn4)cn3)CC2)C(=O)N1C1=CC(=O)OC1` (stereo not given in full) showed a pIC50 of 7.34.

Regarding `CC1=C(N2CC[C@]3(CC[C@@H](N(C)Cc4ccc(-n5ncnn5)nc4)CC3)C2=O)COC1=O`, the pIC50 is 6.19.
